Data from patent publication US20160193240A1, “Ulmoside-A: Useful For Prevention Or Cure Of Metabolic Diseases” (COUNCIL OF SCIENTIFIC & INDUSTRIAL RESEARCH, priority 2013, published 2016).
Marks after values point to notes of the source that are not given here.

Assays:
[1] = test system: pAMPK, pACC and pP38; assay: AMPK, ACC and p38 phosphorylation by western blot in C2C12 myotubes; format: cell-based, mouse; conditions: 10 nM
Protocol: A. ULMA induces rapid AMPK and p38MAPK signaling. C2C12 myotubes in 10 cm dishes were treated with vehicle (0.1% vol/vol DMSO; 0 min) or 10 nM ULMA for different time points ranging from 1 min to 24 h (final concentration of DMSO in all wells were 0.1% vol/vol). Following treatment, the cells were washed with ice-cold PBS and then lysed. The total protein was estimated by Bradford assay and equal amount of protein (50 μg) was resolved by denaturing polyacrylamide gel electrophoresis and western blotted to determine pAMPK, pACC and pP38 level. Total AMPK, total ACC or total P38 levels were used as loading controls. Data is representative of three independent experiments displaying identical pattern (right panel depicts densitometry from 3 experiments).
B. AdipoR1 overexpression enhances ULMA effect on AMPK and p38 MAPK signaling. C2C12 myoblasts growing in T75 flasks were trypsinized and transfected with […] of either empty vector (pcDNA3) or AdipoR1 expression plasmid using lipofectamine LTX transfection reagent and then the cells were plated in 10 cm dishes. 24 h following transfection, cells were incubated in differentiation medium and maintained in the same medium for 96 h when the cells differentiated fully into myotubes. These cells were then treated with vehicle (DMSO) or ULMA (10 nM) for 10 mins. The cells were then lysed and western blotted for the indicated proteins. Data is representative of three independent experiments displaying identical pattern.
C. Knockdown of AdipoR1 abrogates ULMA effect on AMPK and p38 signalling. C2C12 myotubes in 6 well plates were transfected with 100 nM non-silencing control or AdipoR1 siRNAs using DharmaFECT 1 transfection reagent (Thermo). 72 h following transfection, cells were treated with vehicle (DMSO) or ULMA (10 nM) for 10 min and were western blotted to evaluate pAMPK, pACC, p38, AdipoR1, and R2 status. Total AMPK, ACC, p38 and beta-actin were used as loading controls.
C2C12 myotubes in 10 cm dishes were treated with vehicle (0.1% DMSO; 0 min) or 10 nM ULMA for different time points ranging from 1 min to 24 hour. Following treatment, the cells were washed with ice-cold PBS and then lysed in lysis buffer [1M NaCl, 50 mM HEPES and 0.1% triton X 100 containing 1× protease inhibitor cocktail and 1× phosphates inhibitor cocktail (Sigma)]. The total protein was estimated by Bradford assay and equal amount of protein (50 μg) was resolved by denaturing polyacrylamide gel electrophoresis and western blotted for determination of pAMPK, pACC and pP38 levels (in all the cases the primary antibodies were used in 1:1000 dilution and all the antibodies were from Cell signaling technology). Total AMPK, ACC and p38 expressions were also detected and used as loading controls (all the antibodies were from Cell signaling technology and were used in 1:1000 dilution). […] To evaluate if AdipoRs are indeed involved in the regulation of these pathways by ULMA, C2C12 myoblasts growing in T75 flasks were trypsinized and transfected with 10 μg of either empty vector (pcDNA3) or AdipoR1 expression plasmid using lipofectamine LTX transfection reagent and then the cells were plated in 10 cm dishes. 24 hours following transfection, cells were incubated in differentiation medium and were maintained in the same medium for 96 hours when the cells fully differentiated into myotubes. These cells were then treated with vehicle (DMSO) or ULMA (10 nM) for 10 min. The cells were then lysed (as mentioned above) and western blotted. […] This was further validated in knockdown experiments where C2C12 myotubes in 6 well plates were transfected with 100 nM non-silencing control or AdipoR1 siRNAs using DharmaFECT 1 transfection reagent (Thermo). 72 hours following transfection, cells were treated with vehicle (DMSO) or ULMA (10 nM) for 10 min and were western blotted to evaluate pAMPK, pACC, pP38, AdipoR1, and R2 status.

[2] = test system: C2C12 myotubes; assay: Western blot of PGC-1α, PPAR and GLUT4 in C2C12 myotubes; format: cell-based, mouse; conditions: 10 nM, 24 or 48 hours
Protocol: B. ULMA induces protein levels of PGC-1α, PPARα and Glut4. C2C12 myotubes in 10 cm dish were treated with vehicle (DMSO) or 10 nM ULMA in DMSO for 24 or 48 h followed by western blotting with indicated antibodies. Data is representative of three independent experiments showing identical pattern.
Adiponectin enhances transcription of genes regulating fatty acid transport, fatty acid-oxidation and mitochondrial uncoupling proteins in skeletal muscle and myotubes (T. Kadowaki, T. Yamauchi, N. Kubota, K. Hara, K. Ueki, K. Tobe. J Clin Invest. 116(7): 1784-92. 2006; S. Dridi, M. Taouis. Journal of Nutritional Biochemistry 20 (2009): 831-839. 2009; M. Iwabu, T. Yamauchi, M. Okada-Iwabu, K. Sato, T. Nakagawa, M. Funata, M. Yamaguchi, S. Namiki, R. Nakayama, M. Tabata, H. Ogata, N. Kubota, I. Takamoto, Y. K. Hayashi, N. Yamauchi, H. Waki, M. Fukayama, I. Nishino, K. Tokuyama, K. Ueki, Y. Oike, S. Ishii, K. Hirose, T. Shimizu, K. Touhara, T. Kadowaki. Nature; 464(7293):1313-1319. 2010). The ability of ULMA to influence expression of these genes were checked in c2c12 myotubes. C2C12 myotubes in 6 well plates were treated with 10 nM ULMA or vehicle (DMSO) for 12 hours or 24 hours. Following treatment, the cells were washed with ice-cold PBS and RNA was extracted using Trizol (Ambion) according to manufacturer's instructions. The RNAs were quantitated using a spectrophotometer (nanophotometer; Implen GMBH) and 1 μg RNA was used to prepare cDNA using a cDNA synthesis kit (Applied Biosystems). cDNAs were then used for quantitative real-time PCR for indicated genes (FIG. 3A) using Veriquest SYBR green QRT-PCR mastermix (US Biologicals) and a Roche lightcycler 480 thermal cycler (Roche Diagnostics). Beta-actin was used as normalizing control. The relative mRNA level was quantitated using ddCT method. […] Adiponectin is also known to induce muscle and adipose glucose transporter 4 (GLUT4) expressions; and the ability of ULMA to induce the expression of GLUT4, PPAR and PGC-1α was investigated by western blotting. […]

[3] = test system: wistar rats; assay: Dexamethasone-mediated imbalance in serum Na, K level in rats; format: in vivo, rat; conditions: Dex + ULMA, 14 days
Protocol: Food intake was measured daily and the rats were weighed each week. The rats were fasted overnight (O/N) on day 14th and on day 15th oral glucose tolerance test was performed. Following oral glucose tolerance test (OGTT), rats were kept with food and water ad libitum for one day. On day 16th, rats were fasted again O/N and then euthanized. At autopsy, from 5 animals/group, tissues were collected and snap frozen in liquid nitrogen. Blood was collected from cardiac punctures. Plasma was separated from whole blood by centrifugation at 3000 rpm for 20 min immediately after collection of blood and stored at −80° C. until further analysis. Forelimb (quadriceps) skeletal muscles were processed for RNA and protein extraction, followed by quantitative real-time PCR (QRT-PCR) analysis. Two animals from each group were used for photography post autopsy.

O=C1c2c(cc(O)c([C@@H]3O[C@H](CO)[C@@H](O)[C@H](O)[C@H]3O)c2O)O[C@@H](c2ccc(O)c(O)c2)[C@@H]1O [ULMA, (2S,3S)-(+)-3′,4′,5,7-tetrahydroxydihydroflavonol-6-C-β-D-glucopyranoside]
phosphorylation of ACC ([1]; 1 min to 24 hour): rapid and robust phosphorylation | phosphorylation of AMPK ([1]; 1 min to 24 hour): rapid and robust phosphorylation | phosphorylation of p38 ([1]; 1 min to 24 hour): phosphorylated | response on AMPK, ACC and p38 phosphorylation with siAdipoR1 ([1]; 10 min, 100 nM AdipoR1 siRNA): completely obliterated ULMA response | effect on AMPK and p38 MAPK signaling with AdipoR1 overexpression ([1]; 10 min, AdipoR1 expression plasmid vs empty vector): robust increase in effect of ULMA | AMPK, ACC and p38 phosphorylation with control siRNA (siC) ([1]; 10 min, non-silencing control siRNA): phosphorylated AMPK, ACC and P38 | GLUT4 protein level [2]: induced protein levels | PGC-1α protein level [2]: induced protein levels | PPAR protein level [2]: induced protein levels | Na (mmol/l) [3]: 124 ± 3.7^a mmol/l | serum K [3]: 3.93 ± 0.08 mM
